According to the supplement of paper PMC11451515:

Tested on: SEM cells
Experiment: cell viability relative to DMSO control; higher = less cytotoxic
Conditions: 48 h
How it was run: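 Viability was expressed as a per-plate percentage of DMSO wells, with cell-free wells as background. Leukemia cells (NOMO1 or SEM at 500 cells/well, P12-Ichikawa at 1000 cells/well) were adapted for at least four passages in each medium and seeded in 1536-well plates (5 μl). Library compounds in DMSO were pin-dosed over an 11-point threefold series from 47 μM to 0.79 nM, and CellTiter-Glo One luminescence was read after 48 h at 37°C.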

[1] = HPLM + 10% dialyzed FBS, 0.000781 µM
[2] = HPLM + 10% dialyzed FBS, 0.00234 µM
[3] = HPLM + 10% dialyzed FBS, 0.00702 µM
[4] = HPLM + 10% dialyzed FBS, 0.0211 µM
[5] = HPLM + 10% dialyzed FBS, 0.0632 µM
[6] = HPLM + 10% dialyzed FBS, 0.19 µM
[7] = HPLM + 10% dialyzed FBS, 0.569 µM
[8] = HPLM + 10% dialyzed FBS, 1.71 µM
[9] = HPLM + 10% dialyzed FBS, 5.12 µM
[10] = HPLM + 10% dialyzed FBS, 15.4 µM
[11] = HPLM + 10% dialyzed FBS, 46.1 µM
[12] = RPMI 5 mM glucose + 10% FBS, 0.000781 µM
[13] = RPMI 5 mM glucose + 10% FBS, 0.00234 µM
[14] = RPMI 5 mM glucose + 10% FBS, 0.00702 µM
[15] = RPMI 5 mM glucose + 10% FBS, 0.0211 µM
[16] = RPMI 5 mM glucose + 10% FBS, 0.0632 µM
[17] = RPMI 5 mM glucose + 10% FBS, 0.19 µM
[18] = RPMI 5 mM glucose + 10% FBS, 0.569 µM
[19] = RPMI 5 mM glucose + 10% FBS, 1.71 µM
[20] = RPMI 5 mM glucose + 10% FBS, 5.12 µM
[21] = RPMI 5 mM glucose + 10% FBS, 15.4 µM
[22] = RPMI 5 mM glucose + 10% FBS, 46.1 µM
[23] = RPMI 5 mM glucose + 10% dialyzed FBS, 0.000781 µM
[24] = RPMI 5 mM glucose + 10% dialyzed FBS, 0.00234 µM
[25] = RPMI 5 mM glucose + 10% dialyzed FBS, 0.00702 µM
[26] = RPMI 5 mM glucose + 10% dialyzed FBS, 0.0211 µM
[27] = RPMI 5 mM glucose + 10% dialyzed FBS, 0.0632 µM
[28] = RPMI 5 mM glucose + 10% dialyzed FBS, 0.19 µM
[29] = RPMI 5 mM glucose + 10% dialyzed FBS, 0.569 µM
[30] = RPMI 5 mM glucose + 10% dialyzed FBS, 1.71 µM
[31] = RPMI 5 mM glucose + 10% dialyzed FBS, 5.12 µM
[32] = RPMI 5 mM glucose + 10% dialyzed FBS, 15.4 µM
[33] = RPMI 5 mM glucose + 10% dialyzed FBS, 46.1 µM

Row | Compound | cell viability [1] [%] | cell viability [2] [%] | cell viability [3] [%] | cell viability [4] [%] | cell viability [5] [%] | cell viability [6] [%] | cell viability [7] [%] | cell viability [8] [%] | cell viability [9] [%] | cell viability [10] [%] | cell viability [11] [%] | cell viability [12] [%] | cell viability [13] [%] | cell viability [14] [%] | cell viability [15] [%] | cell viability [16] [%] | cell viability [17] [%] | cell viability [18] [%] | cell viability [19] [%] | cell viability [20] [%] | cell viability [21] [%] | cell viability [22] [%] | cell viability [23] [%] | cell viability [24] [%] | cell viability [25] [%] | cell viability [26] [%] | cell viability [27] [%] | cell viability [28] [%] | cell viability [29] [%] | cell viability [30] [%] | cell viability [31] [%] | cell viability [32] [%] | cell viability [33] [%]
1 | Nc1nc(-c2nn(Cc3ccccc3F)c3ncccc23)nc(N)c1N1CCOCC1 | 88.9 | 87.4 | 96 | 96.1 | 101 | 110 | 99.3 | 116 | 104 | 93.5 | 89.8 | 98 | 84.6 | 103 | 115 | 106 | 111 | 111 | 121 | 94.2 | 89.6 | 80.6 | 93.8 | 85.6 | 113 | 99.9 | 104 | 85.2 | 104 | 126 | 101 | 96.2 | 90.9
2 | Nc1ccccc1NC(=O)c1ccc(CNc2nccc(-c3cccnc3)n2)cc1 | 98.4 | 101 | 117 | 109 | 119 | 110 | 73.1 | 25.5 | 8.57 | 6.62 | 7.25 | 89.7 | 94.4 | 91.6 | 97.6 | 105 | 105 | 69.4 | 21.8 | 7.2 | 6.22 | 6.49 | 92.7 | 111 | 106 | 106 | 117 | 105 | 62.8 | 17.5 | 7.07 | 6.52 | 7.92
3 | COc1cc(N2CCC(O)CC2)ccc1Nc1cc(Nc2ccccc2[S+](=O)([O-])C(C)C)c2cc[nH]c2n1 | 87.5 | 71.5 | 79.4 | 79.2 | 81.4 | 58.7 | 34.3 | 83.4 | 44 | 17.7 | 22.2 |  |  |  |  |  |  |  |  |  |  |  | 93.2 | 94.6 | 82.4 | 96.8 | 86.3 | 60.7 | 27.6 | 81.1 | 53.9 | 21.1 | 18.3
4 | CC[C@]1(O)C[C@H]2CN(CCC3=C([NH]C4=C3C=CC=C4)[C@@](C2)(C(=O)OC)C5=CC6=C(C=C5OC)N(C=O)[C@H]7[C@](O)([C@H](OC(C)=O)[C@]8(CC)\C=C/C[N@@]9CC[C@]67[C@H]89)C(=O)OC)C1 | 114 | 104 | 95.2 | 84 | 36.5 | 24.7 | 20.7 | 23.2 | 16.4 | 10.7 | 7.67 | 70.8 | 70.8 | 67 | 39.6 | 13.4 | 11 | 12 | 8.09 | 4.93 | 3.51 | 2.93 | 99.8 | 108 | 106 | 90.3 | 46.3 | 18 | 16.2 | 18.1 | 11.5 | 6.29 | 5.26
5 | O=C1CSC(=O)N1C(CCc1ccncc1)COc1ccc(-c2cccc([N+](=O)[O-])c2)cc1 (centres undefined) | 119 | 123 | 109 | 115 | 118 | 92.4 | 114 | 95.6 | 111 | 112 | 79.5 | 123 | 118 | 132 | 118 | 112 | 117 | 117 | 109 | 98.6 | 82.7 | 48.9 | 105 | 131 | 105 | 123 | 135 | 116 | 128 | 117 | 106 | 116 | 75.1
6 | CC1SC/2=C(C(O)=O)/C(=O)C3=CC(=C(C=C3N12)N4CCN(CC4)C\C5=C(C)\OC(=O)O5)F (centres undefined) |  |  |  |  |  |  |  |  |  |  |  | 61.5 | 119 | 128 | 121 | 124 | 123 | 132 | 111 | 121 | 114 | 112 | 47.8 | 125 | 143 | 130 | 133 | 102 | 140 | 126 | 115 | 116 | 104
7 | COC[C@H](NC(=O)c1cnc(C)s1)C(=O)N[C@@H](COC)C(=O)N[C@@H](Cc1ccccc1)C(=O)[C@@]1(C)CO1 | 116 | 97.1 | 110 | 121 | 92.3 | 5.47 | 3.74 | 3.51 | 2.04 | 1.53 | 2.48 | 102 | 91.6 | 111 | 120 | 82 | 6.81 | 3.82 | 3.59 | 2.31 | 1.56 | 2.78 | 81.9 | 87.7 | 108 | 101 | 70.3 | 5.77 | 3.78 | 2.78 | 1.96 | 1.46 | 2.4
